The record followed here is patent publication US4877803A, “Bis-dioxopiperazine derivatives and pharmaceutical compositions containing the same” (Zenyaku Kogyo Kabushiki Kaisha, priority 1985, dated 1989).

Structures are written as SMILES. Bounds are passed on as bounds.

Broadly, the LD50 is the dose at which mortality reaches 50%.

Series [1] has as its system P388 lymphocytic leukemia cells. As to the kind of experiment: Growth inhibition of tumor cells in vitro. In kind it is cell-based. The note with it: Mus musculus, 48 hours at 37° C., read-out: IC50 (50% inhibitory concentration of cell growth). The protocol: (I) Growth Inhibition of Tumor Cells in Vitro:
Tumor cells were collected aseptically with capillary tube from ascites in CDF1 male mice transplanted intraperitoneally with 1×10^6 cells of P388 lymphocytic leukemia 5 days Before. Cell suspension was prepared at 5×10^4 cells/0.5 ml in a RPMI1640 medium supplemented with 10% fetal calf serum, Kanamycin (0.1 mg/ml) and 2-hydroxyethyldisulfide (0.01 mm). Each sample was dissolved or suspended in the medium at a concentration of 1×10^-1 -1×10^-5 mM/ml.
A test tube with Molton stopper loosely involving 0.5 ml each of the cell suspension and the sample suspension was kept for 48 hours at 37° C. in an incubator supplied with air containing 5% carbon dioxide. Then, after addition of 4 ml of 0.25% trypsin solution, the tube was shaken for 5 minutes at 37° C. The cells harvested therefrom was counted by using of a Coulter Counter and the inhibition of cell growth was calculated by the following formula: [formula] T: number of cells in the culture containing test compound. C: number of cells in the culture of control
50% Inhibitory concentration of cell growth (IC50) was calculated based on the inhibition in various concentrations of test compound and is shown in Table I.

Series [2] deals with P388 lymphocytic leukemia. The experiment in a line: Increase in life span on tumor-transplanted mouse (P388). In kind it is in vivo, mouse (CDF1). Conditions: intraperitoneal, 1 day after transplantation and on 5th day. The protocol:
(II) Increase in Life Span on Tumor-transplanted Mouse: The treated group to which the compound of the present invention was administered consisted of seven mice, while the control group consisted of ten mice. Six weeks old male mice (CDF1, 25±2 g of body weight) were employed as host animals.
Tumor cells (1.0×10^6) of P388 lymphocytic leukemia were transplanted intraperitoneally into each mouse. The treatment was effected one day after the transplantation and on 5th day by administering prescribed dose of each test compound intraperitoneally to the mice.
Antitumor activity of the test compound was evaluated by the rate of increase in life span (ILS) which was calculated with the following formula. [formula] T': median survival time of treated mice C': median survival time of control mice

A short description of series [3]: Acute toxicity test in mice. The note with it: mouse, in vivo, ip; male ICR mice, intraperitoneal, observed for 14 days, Litchfield-Wilcoxon method. The protocol: The acute toxicity of the compounds of the present invention was examined by the following test.
The test group to which the compound of the present invention was administered consisted of ten mice. Five weeks old male mice (ICR, 25±2 g of body weight) were employed as test animals.

`C[C@H]([C@H](C)N1CC(=O)N(CN2CCOCC2)C(=O)C1)N1CC(=O)N(CN2CCOCC2)C(=O)C1` [(1), meso-2,3-bis(4-morpholinomethyl-3,5-dioxopiperazin-1-yl)butane]: the IC50 in series [1] amounted to 61 nM. The “ILS (rate of increase in life span)” value in series [2] (daily dose 3.0 mg/kg) is on record as 165%. Moreover, in series [3], the LD50 at 336 h is 10.7 mg/kg.

With `C[C@H]([C@H](C)N1CC(=O)N(CN2CCN(c3ccccc3)CC2)C(=O)C1)N1CC(=O)N(CN2CCN(c3ccccc3)CC2)C(=O)C1` [(3), meso-2,3-bis[4-(N-phenylpiperazinomethyl)-3,5-dioxopiperazin-1-yl]butane], the IC50 in series [1] came to 22 nM. The “ILS (rate of increase in life span)” value in series [2] (daily dose 3.4 mg/kg) came out at 78%.

For the molecule `C[C@H]([C@H](C)N1CC(=O)N(CN2CCSCC2)C(=O)C1)N1CC(=O)N(CN2CCSCC2)C(=O)C1` [(2), meso-2,3-bis(4-thiomorpholinomethyl-3,5-dioxopiperazin-1-yl)butane], the IC50 in series [1] was 230 nM. In series [2] (daily dose 1.8 mg/kg), the “ILS (rate of increase in life span)” value was above 194%.

Turning to `CC1CC(C)CN(CN2C(=O)CN([C@H](C)[C@H](C)N3CC(=O)N(CN4CC(C)CC(C)C4)C(=O)C3)CC2=O)C1` (stereo partly drawn) [(5), meso-2,3-bis[4-(3,5-dimethylpiperidinomethyl)-3,5-dioxopiperazin-1-yl]butane], the IC50 in series [1] was 12 nM.

As for `CC(CN1CC(=O)N(CN2CCOCC2)C(=O)C1)N1CC(=O)N(CN2CCOCC2)C(=O)C1` (racemic) [(B), dl-1,2-bis(4-morpholinomethyl-3,5-dioxopiperazin-1-yl)propane], the IC50 in series [1] came out at 1600 nM. The “ILS (rate of increase in life span)” value in series [2] (daily dose 3.0 mg/kg) was 1%; in series [2] (daily dose 200 mg/kg (adequate dose)), 47%.

In the case of `C[C@H]([C@H](C)N1CC(=O)N(CN2CCCCC2)C(=O)C1)N1CC(=O)N(CN2CCCCC2)C(=O)C1` [(4), meso-2,3-bis(4-piperoidinomethyl-3,5-dioxopiperazin-1-yl)butane], the IC50 in series [1] is 47 nM.

Take `O=C1CN(CCN2CC(=O)N(CN3CCOCC3)C(=O)C2)CC(=O)N1CN1CCOCC1` [(A), 1,2-bis(4-morpholinomethyl-3,5-dioxopiperazin-1-yl)ethane]: the IC50 in series [1] was 2400 nM. Moreover, the “ILS (rate of increase in life span)” value in series [2] (daily dose 3.0 mg/kg) is on record as 2%; in series [2] (daily dose 100 mg/kg (adequate dose)) it was 60%.
